Test results: patent publication US20050209104A1, “Dinoflagellate karlotoxins, methods of isolation and uses thereof” (priority 2002, published 2005)
Converted amounts (≈) assume the structure as drawn. “Also recorded” adds a separate entry of the source.

Tests used:
[1] = test system: Aspergillus niger (ATCC 1004); assay: Anti-fungal broth microdilution assay (filamentous fungi); type: cell-based
Experimental: (§1) The following fungal strains were purchased from the American Type Culture Collection (Manassas, Va.), Aspergillus niger (ATCC 1004) as a representative filamentous fungi, and Candida albicans (ATCC 14053) as a representative yeast. Assays were performed according to the following National Committee for Clinical Laboratory Standards documents; M27-A2 Reference Method for Broth Dilution Antifungal Susceptibility Testing of Yeasts; Approved Standard—Second Edition([NCCLS, 2002), and M38-A Reference Method for Broth Dilution Antifungal Susceptibility Testing of Filamentous Fungi; Approved Standard (NCCLS, 2002). Procedures for the broth microdilution modification were followed for both species with the following exceptions; A. niger stocks were maintained on Potato Dextrose Agar at 25° C., while C. albicans was maintained on Yeast Malt Agar at 28° C., both according to ATCC recommendations. Amphotericin B was used as a positive control. Microdilution assays were performed in HyQ-RPMI-1640 media (HyClone, Logan, Utah.), with 2.05 mM L-glutamine, without sodium bicarbonate, pH 7.2 using dilutions of 1 mg/ml DMSO stocks of KmTx 2 and amphotericin B.
(§2) The following concentrations were tested for both KmTx2 and amphotericin B: 0.0625, 0.125, 0.25, 0.5, 1, 2, 4, 8, and 16 μg/ml. A maximum of 1.6% DMSO was added to any given well. Plates were incubated at 25 and 28° C., respectively, for A. niger and C. albicans. […] Amphotericin B and all culture media were purchased from Sigma-Aldrich (St. Louis, Mo.).

[2] = test system: Candida albicans (ATCC 14053); assay: Anti-fungal broth microdilution assay (yeast); type: cell-based; settings: lowest dose with no growth after 96 hours, 28° C.
Experimental: as §1, §2

[3] = test system: rat ventricular cardiac myocytes; assay: Ion permeation measurement, Ca^2+ with fura-2 (cardiac myocyte); type: cell-based; settings: 60 seconds after application of 0.25 μg/ml
[4] = test system: rainbow trout erythrocytes; assay: Osmotic protection assay; type: cell-based; settings: 30 mM osmolyte, even at 1 μg/ml KmTx 2
Experimental: The following osmolytes (all purchased from Sigma-Aldrich Co., St Louis, Mo.) were prepared as 30 mM solutions using the Tris buFFer +CaCl2: sucrose (MW 342.3), polyethylene glycol (MW 400), polyethylene glycol (MW 600), maltohexaose (MW 990.0), polyethylene glycol (MW 8,000), dextran (MW 10,000). Osmolarity of each solution was measured using a Vapro 5520 vapor pressure osmometer (Wescor Inc., Logan Utah). […] The osmolarities of PEG 8,000 and 10,000 MW dextran were approximately double this amount (ca. 640 mOsm).
Assays were performed by preparing trout erythrocyte suspensions and toxin dilutions (0, 0.25 0.5, and 1 μg/ml) in the appropriate osmolyte solution and performing the hemolysis assay as described in supplemental materials.

K. micrum (CCMP 2282) = assay: Exposure of Karlodinium micrum to KmTx 2; type: cell-based
Experimental: Oxyrrhis marina (1.7×10^4 cells/mil) and K. micrum (CCMP 2282) (3.5×10^4 cells/ml) were exposed, in triplicate, to 0, 0.1, 0.5, and 1 μg/ml KmTx 2 in six well non-tissue culture treated polystyrene plates (Becton Dickinson Labware, Lincoln Park N.J.). The O. marina culture was obtained through single cell isolation from a Chesapeake Bay water sample and was maintained in 15 psu artificial sea water (Instant Ocean Brand) using Rhodomonas sp. (CCMP 767) as a food source. O. marina was starved for 24 hours prior to exposures to reduce the number of food organisms. K. micrum (CCMP 2282) was maintained in 12 psu artificial sea water (Instant Ocean Brand) with f/2 nutrient mixture plus 1% soil extract as described in Deeds et al. (2002). Cell densities were measured at 1 and 24 hours using a Coulter Multisizer II particle counter by enumerating the 7-20 μm and the […] size fractions, respectively, for K. micrum and O. marina using a Coulter Accucomp software package (Coulter Electronics Limited, Miami Fla.). […]
Hemolytic activity remaining in solution was measured at 1 hour by mixing 100 μl of each treatment with an equal volume of diluted rainbow trout RBC suspension as described above in Example 3.

[5] = test system: rat embryonic fibroblast (REF 52) cells; assay: Ion permeation measurement, Ca^2+ flux with fura-2 (fibroblasts); type: cell-based
Experimental: The following cell types were tested for toxicity due to KmTx 2; rat embryonic fibroblast, rat intestional epithelial, and isolated rabbit primary sensory neurons. Cells were cultured on No. 1 glass coverslips and loaded with fluorescent indicator (fura-2) and were examined on an inverted epifluorescence microscope (model Diaphot; 40×CF Fluor objective, N.A. 1.30; Nikon Corp.) coupled to a spectrofluorometer (model CM1T10I, SPEX Industries) operating in the microfluorometry mode. Cells were bathed in 4 ml of Dulbecco's modified Eagle's medium (DMEM) buffered with HEPES (pH 7.4). KmTx 2 (stock solution in DMSO) was directly bath-applied with gentle convective mixing. Fura-2 was alternately excited at 340 and 380 nm. Fluorescence emission was passed through a 510-nm bandpass filter before photometric quantitation. DATAMAX software (SPEX Industries) was used for data acquisition and instrument control. Origin software (OriginLab Corp.) was used for data reduction and analysis

[6] = test system: zebrafish (Danio rerio-60 days old); assay: Effect of KmTx 2 on fish (mortality and histology); type: in vivo
Experimental: Zebrafish (Danio rerio-60 days old) were exposed to 0.1, 0.5, 1, or 2 μg/ml KmTx 2 in 50 ml of aerated reconstituted fresh water (soft) [ASTM, 1992 #125]. Toxin dilutions were made in MeOH (200 μl max. per treatment) and controls were exposed to 200 μl MeOH only. Three fish were exposed per replicate, three replicates per treatment. […] Upon death, fish were preserved in neutral buffered formalin and prepared for histological examination as described in Noga 2000.

C=C(CC[C@H](O)[C@H]1O[C@H](C[C@@H](O)[C@H](O)[C@H](C)CCC[C@@H](O)[C@H](O)[C@H](O)[C@@H](C)CC[C@@H](O)[C@H](O)[C@H](C)C[C@@H](O)CCC[C@@H](O)CCC[C@@H](O)/C=C/C[C@@H](O)CO)[C@@H](O)[C@@H](O)[C@@H]1O)[C@H](O)[C@H](O)[C@@H]1C[C@H](O)[C@H](O)[C@@H]([C@H](O)[C@@H](O)/C=C/CCCCCCCC/C=C/C=C/Cl)O1 [KmTx 2]
anti-fungal activity, fold lower than for amphotericin B ([1]; depending on species tested (A. niger, C. albicans)): 10-100 fold
Minimal inhibitory concentration (MIC) ([1]; lowest dose with no growth after 96 hours, 25° C.): 8 µg/mL (≈ 5.94 µM)
Minimal inhibitory concentration (MIC) [2]: 16 µg/mL (≈ 11.9 µM)
[Ca^2+]i in cardiac myocyte [3]: dramatically elevated
molecular weight of inert osmolyte giving complete prevention of lysis [4]: > 8,000 Da
K. micrum culture growth (K. micrum (CCMP 2282); 1 μg/ml, after 24 hours): continued to divide
effect on cultures of K. micrum (K. micrum (CCMP 2282); 0.1, 0.5, and 1 μg/ml): no effect
intracellular free Ca^2+ concentration ([Ca^2+]i) ([5]; 0.25 μg/ml): marked increase in intracellular free Ca^2+ concentration; also recorded: rapid increase in cytosolic Ca^2+ levels followed by slight recovery
intracellular free Ca^2+ concentration ([Ca^2+]i) ([5]; 1 μg/ml): sharp and irreversible rise in [Ca^2+]i; also recorded: rapid rise in cytosoloc Ca^2+ levels with no recovery
survival ([6]; 0.1 μg/ml, 6 hr exposure): survived the full 6 hr exposure
histological examination of gills ([6]; 0.1 μg/ml, 6 hrs): loss of secondary structure of gill lamellae and sloughing of gill epithelial tissue
histological examination of gills ([6]; 0.5 μg/ml): Severe necrosis and degeneration of gill tissue
time to death, all fish ([6]; 0.5 μg/ml): < 1 h
